Laboratory results from patent US20040072287A1 (priority 2003, published 2004).
Several values for one entry are separate records, joined by “and”; a condition that tells them apart may be missing. Equal entries are not always repeated. Ends that are not written are not given here.

Legend:
[1] = biological target: human melanin-concentrating hormone receptor 1 (MCHR1) (human) (UniProt Q99705); experiment: cell-based or functional assay
[2] = tested on: GOTO cells; experiment: aequorin bioluminescence assay in GOTO cells without exogenous MCHR1 (aequorin only, or no plasmids); assay type: cell-based, human
Method: The aequorin bioluminescence assay can be used to measure the activity of G protein-coupled receptors that couple through the Ga protein subunit family consisting of Gq, G11, and Gi leading to the activation of phospholipase C, mobilization of intracellular calcium and activation of protein kinase C. Measurement of functional MCHR1 expression in GOTO cells transiently expressing aequorin was performed using a Luminoskan RT luminometer (Labsystems Inc., Gaithersburg, Md.) controlled by custom software written for a Macintosh PowerPC 6100.
GOTO cells (1.2×10^7 cells plated 18 hours before transfection in a T75 flask) were transfected with human MCHR1 plasmid DNA and aequorin cDNA using the Lipofectamine 2000 procedure (Life Technologies, Gaithersburg, Md.). Human MCHR1 plasmid DNA contained the open reading frame cDNA (SEQ. ID. NO. 2) encoding the human MCHR1 receptor inserted in the mammalian expression vector pcDNA-3 (Invitrogen, Carlsbad, Calif.). An aequorin expressing plasmid contained the cDNA for aequorin (Button, et al., 1993. Cell Calcium 14, 663-671), inserted in pcDNA-3. Following approximately 40 hours of expression the apo-aequorin in the cells was charged for 1 hour with coelenterazine (10 μM) under reducing conditions (300 μM reduced glutathione) in ECB buffer (140 mM NaCl, 20 mM KCl, 20 mM HEPES-NaOH [pH=7.4], 5 mM glucose, 1 mM MgCl2, 1 mM CaCl2, 0.1 mg/ml bovine serum albumin). The cells were harvested, washed once in ECB medium and resuspended to 500,000 cells/ml or 1,000,000cells/ml.
Lysophosphatidic acid triggers native edg receptors coupled to PLC activation present on GOTO cells. The integrated light emission was recorded over 30 seconds, in 0.5 second units. 20 μL of lysis buffer (0.1% final Triton X-100 concentration) was then injected and the integrated light emission recorded over 10 seconds, in 0.5 second units. The “fractional response” values for each well were calculated by taking the ratio of the integrated response to the initial challenge to the total integrated luminescence including the Triton X-100 lysis response.

[3] = biological target: T1, human MCHR1 (Homo sapiens, UniProt Q99705); experiment: aequorin bioluminescence assay in GOTO cells co-transfected with aequorin and human MCHR1; assay type: cell-based; conditions: 1 μM; GOTO cells transfected with AEQ + MCHR1
T1 construct: expressed in transfected cells; host or cells: GOTO human neuroblastoma cells, transient co-transfection with aequorin cDNA (pcDNA-3, Lipofectamine 2000)
Method: 20 μL of lysis buffer (0.1% final Triton X-100 concentration) was then injected and the integrated light emission recorded over 10 seconds, in 0.5 second units. The “fractional response” values for each well were calculated by taking the ratio of the integrated response to the initial challenge to the total integrated luminescence including the Triton X-100 lysis response.

[4] = 1 μM, GOTO cells, No Aeq (no aequorin and no MCHR1 plasmid)

human melanin-concentrating hormone receptor 1 (MCHR1) (human), sequence (Q99705 whole entry): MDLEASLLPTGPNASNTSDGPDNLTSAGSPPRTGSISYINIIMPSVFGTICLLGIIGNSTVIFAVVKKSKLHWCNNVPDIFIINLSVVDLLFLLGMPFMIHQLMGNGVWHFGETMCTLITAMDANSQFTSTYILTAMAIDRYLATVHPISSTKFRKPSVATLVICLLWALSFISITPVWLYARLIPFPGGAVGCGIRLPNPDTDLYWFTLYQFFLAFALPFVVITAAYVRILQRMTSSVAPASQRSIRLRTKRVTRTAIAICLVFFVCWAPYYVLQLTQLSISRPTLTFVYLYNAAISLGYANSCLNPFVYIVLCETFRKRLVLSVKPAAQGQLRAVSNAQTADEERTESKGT
T1 sequence (Q99705 whole entry): as above

| aequorin bioluminescence (cps), GOTO cells transfected with AEQ + MCHR1, MCH (1 µM) [1] | bioluminescence [3] [cps] | Substance | bioluminescence [2, 4] [cps] | signal over background (in words) ([2]; GOTO cells, absence of exogenous MCHR1, background = buffer injection only (ECB)) | bioluminescence ([2]; 1 μM, GOTO cells transfected with AEQ only (no MCHR1 plasmid)) [cps] | control response, calcium mobilization via edg receptor (in words) ([2]; 1 μM, GOTO cells, native edg receptor) |
| --- | --- | --- | --- | --- | --- | --- |
| 26.4 cps and 26.6 cps |  | Melanin-concentrating hormone (MCH) (from UniProt P20382 147-165) (peptide) |  |  |  |  |
|  |  | Melanin-concentrating hormone (DFDMLRCMLGRVYRPCWQV; ends and bridges not checked; also: cyclic, ring closure not given here) [MCH] | 0 | no signal over background |  |  |
|  | 6.83 | lysophosphatidic acid [LPA] | 0 |  | 5.24 | control response evoked |
